Measured values reported in patent publication US10584104B2, “Carboxylic acid URAT1 inhibitor containing diarylmethane structure, preparation method and use thereof” (TIANJIN INSTITUTE OF PHARMACEUTICAL RESEARCH CO., LTD., priority 2015, dated 2020).
Where two headings read alike, the source gives them in different places.

Columns and labels:
URAT1 [1] = target: T1, URAT1 (Homo sapiens (Human), UniProt Q96S37); assay: Inhibition of [8-14C] uric acid uptake by HEK293 cells stably expressing URAT1, test compounds at 10 μM; assay type: cell-based
T1 sequence (Q96S37 whole entry): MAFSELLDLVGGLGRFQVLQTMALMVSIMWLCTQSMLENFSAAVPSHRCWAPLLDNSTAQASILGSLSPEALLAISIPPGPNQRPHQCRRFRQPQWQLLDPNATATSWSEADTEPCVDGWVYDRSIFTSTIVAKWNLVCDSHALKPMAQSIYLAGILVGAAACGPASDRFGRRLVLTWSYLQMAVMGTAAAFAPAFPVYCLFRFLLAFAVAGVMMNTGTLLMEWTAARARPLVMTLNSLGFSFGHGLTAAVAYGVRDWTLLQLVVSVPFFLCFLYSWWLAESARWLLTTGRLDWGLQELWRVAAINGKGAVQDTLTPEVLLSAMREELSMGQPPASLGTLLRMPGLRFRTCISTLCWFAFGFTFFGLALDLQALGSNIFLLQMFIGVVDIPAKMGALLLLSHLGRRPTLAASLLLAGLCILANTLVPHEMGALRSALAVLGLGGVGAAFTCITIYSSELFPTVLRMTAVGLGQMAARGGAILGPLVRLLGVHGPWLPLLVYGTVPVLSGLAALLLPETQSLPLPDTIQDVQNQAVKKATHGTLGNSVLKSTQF
Description: (I) Inhibitory Experiment of the Test Compounds at a Concentration of 10 μM on URAT1 After trypsin digestion, the expression cells (HEK293) stably expressing URAT1 gene and mock cells were all inoculated into lysine-coated 24-well culture plates, with the cell inoculation density being 1×10^5 cells/well, and cultured in incubator at 37° C., 5% CO2 and saturated humidity for 2 days. […] After 2 min, the reaction was terminated with ice-bathed DPBS buffer solution and washing was carried out for three times. […]
wherein, control=the intensity of radioactivity corresponding to the well without the test compound test compound=the intensity of radioactivity corresponding to the well with the test compound mock=the intensity of radioactivity corresponding to the well of blank cells untransfected with URAT1

URAT1 [2] = target: T1, URAT1; assay: IC50 for inhibition of the test compounds on URAT1 (nine concentration points, 0.001-10 μM); settings: HEK293 cells stably expressing URAT1; [8-14C] uric acid uptake; nine concentrations 0.001-10 μM
[3] = 10 μM test compound, HEK293 cells stably expressing URAT1, 30 μM [8-14C] uric acid, 2 min, read-out: Inhibition rate (%)
[4] = HEK293, read-out: Inhibition rate (%)
[5] = 10 μM test compound, HEK293 cells stably expressing URAT1, 30 μM [8-14C] uric acid, 2 min

SMILES	inhibition at 10 µM (URAT1 [1]; [3])	other results
CC(C)c1ccc(Cn2c(Br)nnc2CCC(=O)O)c2ccccc12 [Compound of Example 39]	92%	IC50 (URAT1 [2]): 0.381 µM
CC(C)(Sc1nncn1Cc1ccc(C2CC2)c2ccccc12)C(=O)O [Compound of Example 18]	78%	
O=C(O)CCc1nnc(Br)n1Cc1ccc(Br)c2ccccc12 [Compound of Example 52]	93%	IC50 (URAT1 [2]): 0.083 µM
CC(C)(Sc1nnc(Br)n1Cc1cccc2ccccc12)C(=O)O [Compound of Example 22]	77%	
CCCc1ccc(Cn2c(Br)nnc2CCC(=O)O)c2ccccc12 [Compound of Example 38]	86%	IC50 (URAT1 [2]): 0.107 µM
CC(C)(Sc1nnc(F)n1Cc1ccc(C2CC2)c2ccccc12)C(=O)O [Compound of Example 19]	82%	
CC(C)c1ccc(Cn2c(Br)nnc2CC(C)(C)C(=O)O)c2ccccc12 [Compound of Example 49]	93%	IC50 (URAT1 [2]): 0.487 µM
CC(C)(Sc1nnc(Cl)n1Cc1ccc(C2CC2)c2ccccc12)C(=O)O [Compound of Example 20]	86%	IC50 (URAT1 [2]): 0.886 µM
O=C(O)CCc1nnc(Br)n1-c1ccc(C2CC2)c2ccccc12 [Compound B, reference compound]		inhibition at 10 µM (URAT1 [1]; [4]): 50%
N#Cc1ccc(Cn2c(Br)nnc2CCC(=O)O)c2ccccc12 [Compound of Example 40]	92%	
CC(C)(Cc1nnc(Br)n1Cc1ccc(C2CC2)c2ccccc12)C(=O)O [Compound of Example 41]	94%	
Cc1ccc(Cn2c(Br)nnc2CC(C)(C)C(=O)O)c2ccccc12 [Compound of Example 46]	84%	
O=C(O)CSc1nnc(Br)n1Cc1ccc(C2CC2)c2ccccc12 [Compound of Example 1]		Inhibition rate (%) (URAT1 [1]; [5]): 90%; IC50 (URAT1 [2]): 0.201 µM
CC(C)(Cc1nnc(F)n1Cc1ccc(C2CC2)c2ccccc12)C(=O)O [Compound of Example 43]	80%	
O=C(O)CSc1nnc(I)n1Cc1ccc(C2CC2)c2ccccc12 [Compound of Example 6]	78%	IC50 (URAT1 [2]): 0.44 µM
Cc1ccc(Cn2c(Br)nnc2SC(C)(C)C(=O)O)c2ccccc12 [Compound of Example 23]	83%	
COc1ccc(Cn2c(Br)nnc2SC(C)(C)C(=O)O)c2ccccc12 [Compound of Example 31]	84%	
Cc1ccc(Cn2c(Br)nnc2CCC(=O)O)c2ccccc12 [Compound of Example 36]	82%	
CC(C)(Sc1nnc(Br)n1Cc1ccc(Cl)c2ccccc12)C(=O)O [Compound of Example 28]	77%	
CCCc1ccc(Cn2c(Br)nnc2SC(C)(C)C(=O)O)c2ccccc12 [Compound of Example 25]	80%	IC50 (URAT1 [2]): 1.01 µM
O=C(O)CSc1nnc(Cl)n1Cc1ccc(C2CC2)c2ccccc12 [Compound of Example 5]	76%	IC50 (URAT1 [2]): 0.418 µM
CC(C)(Cc1nnc(Br)n1Cc1ccc(C#N)c2ccccc12)C(=O)O [Compound of Example 50]	92%	
CC(C)(Cc1nncn1Cc1ccc(C2CC2)c2ccccc12)C(=O)O [Compound of Example 42]	71%	
CCc1ccc(Cn2c(Br)nnc2SC(C)(C)C(=O)O)c2ccccc12 [Compound of Example 24]	84%	
O=C(O)CSc1nnc(Br)n1Cc1ccc(Cl)c2ccccc12 [Compound of Example 13]	75%	
CC(C)c1ccc(Cn2c(Br)nnc2SC(C)(C)C(=O)O)c2ccccc12 [Compound of Example 26]	91%	
O=C(O)CSc1nnc(Br)n1Cc1ccc(F)c2ccccc12 [Compound of Example 12]	76%	

SMILES	inhibition at 10 µM (URAT1 [1]; [3])	other results
O=C(O)CCc1nnc(F)n1Cc1ccc(C2CC2)c2ccccc12 [Compound of Example 33]	68%	
O=C(O)CSc1nnc(Br)n1Cc1cccc2ccccc12 [Compound of Example 7]	83%	
O=C(O)CCc1nncn1Cc1ccc(C2CC2)c2ccccc12 [Compound of Example 32]	67%	
COc1ccc(Cn2c(Br)nnc2SCC(=O)O)c2ccccc12 [Compound of Example 16]	81%	
N#Cc1ccc(Cn2c(Br)nnc2SCC(=O)O)c2ccccc12 [Compound of Example 14]	84%	
O=C(O)CSc1nncn1Cc1ccc(C2CC2)c2ccccc12 [Compound of Example 3]	60%	
CCCc1ccc(Cn2c(Br)nnc2CC(C)(C)C(=O)O)c2ccccc12 [Compound of Example 48]	85%	IC50 (URAT1 [2]): 0.512 µM
CC(C)(Cc1nnc(Cl)n1Cc1ccc(C2CC2)c2ccccc12)C(=O)O [Compound of Example 44]	81%	
O=C(O)CCc1nnc(Br)n1Cc1ccc(C2CC2)c2ccccc12 [Compound of Example 2]		Inhibition rate (%) (URAT1 [1]; [5]): 91%; IC50 (URAT1 [2]): 0.193 µM
CC(C)(Sc1nnc(Br)n1-c1ccc(C2CC2)c2ccccc12)C(=O)O [Compound A, reference compound]		inhibition at 10 µM (URAT1 [1]; [4]): 55%
CC(C)(Cc1nnc(I)n1Cc1ccc(C2CC2)c2ccccc12)C(=O)O [Compound of Example 45]	82%	
CC(C)c1ccc(Cn2c(Br)nnc2SCC(=O)O)c2ccccc12 [Compound of Example 11]	91%	IC50 (URAT1 [2]): 0.484 µM
O=C(O)CCc1nnc(Cl)n1Cc1ccc(C2CC2)c2ccccc12 [Compound of Example 34]	88%	
CCc1ccc(Cn2c(Br)nnc2SCC(=O)O)c2ccccc12 [Compound of Example 9]	84%	
O=C(O)CCc1nnc(I)n1Cc1ccc(C2CC2)c2ccccc12 [Compound of Example 35]	84%	
CCc1ccc(Cn2c(Br)nnc2CCC(=O)O)c2ccccc12 [Compound of Example 37]	84%	
CC(C)(Sc1nnc(Br)n1Cc1ccc(C#N)c2ccccc12)C(=O)O [Compound of Example 29]	89%	
CC(C)(Sc1nnc(Br)n1Cc1ccc([N+](=O)[O-])c2ccccc12)C(=O)O [Compound of Example 30]	81%	
O=C(O)CSc1nnc(Br)n1Cc1ccc([N+](=O)[O-])c2ccccc12 [Compound of Example 15]	70%	
CC(C)(Sc1nnc(I)n1Cc1ccc(C2CC2)c2ccccc12)C(=O)O [Compound of Example 21]	82%	
CCCc1ccc(Cn2c(Br)nnc2SCC(=O)O)c2ccccc12 [Compound of Example 10]	85%	IC50 (URAT1 [2]): 0.094 µM
Cc1ccc(Cn2c(Br)nnc2SCC(=O)O)c2ccccc12 [Compound of Example 8]	83%	
CC(C)(Sc1nnc(Br)n1Cc1ccc(C2CC2)c2ccccc12)C(=O)O [Compound of Example 17]	93%	IC50 (URAT1 [2]): 1.02 µM
CCc1ccc(Cn2c(Br)nnc2CC(C)(C)C(=O)O)c2ccccc12 [Compound of Example 47]	85%	
CC(C)(Sc1nnc(Br)n1Cc1ccc(F)c2ccccc12)C(=O)O [Compound of Example 27]	83%	
O=C(O)CSc1nnc(F)n1Cc1ccc(C2CC2)c2ccccc12 [Compound of Example 4]	62%	
